Experimental data taken from patent US8449864B2 (The Board of Trustees of the Leland Stanford Junior …, priority 2006, dated 2013).
Peptide text beside a SMILES is read from it.

Experiments:
neurolysin (NLN) = molecular target: T1, neurolysin (NLN) (Mus musculus, UniProt Q91YP2); test: NT degradation by membrane and cytosol preparations of BMCMCs; type: biochemical; conditions: Pro-Ile 10 mM; NT 10 μM
T1 construct: membrane and cytosol preparations obtained from Kit^+/+ BMCMCs (2×10^6 cells/preparation); endogenous in cells; host or cells: Kit+/+ mouse bone marrow-derived cultured mast cells (BMCMCs), membrane and cytosol fractions
Procedure: FIG. 8. MC-associated neurolysin (NLN) contributes to the MCs' ability to reduce NT-induced hypotension. (a) Identification of NLN in the membrane and cytosol fractions of C1.MC/C57.1 MCs and C57BL/6J BMCMCs. […] Results are expressed as the percentage of NT remaining after incubation with membrane or cytosol preparations compared to that in samples of NT incubated in vehicle alone (n=3). (c, d) Degradation of NT (10 μM) by A23187 (5 μM)-activated Kit^+/+ BMCMCs (2×10^5) that were pre-treated with either empty vector, Neurolysin-short hairpin RNA (NLN-shRNA) or mouse MC carpoxypeptidase A-short hairpin RNA (mMC-CPA-shRNA). Cells were incubated with NT for 30 min at 37° C. Results are expressed as the percentage of NT remaining in the samples compared to that in samples of NT incubated in vehicle alone at 37° C. (n=3). (e) Changes in MAP versus baseline levels (=“0”, measured 3 min after injection of 300 μl saline, i.p.) at various times after injection of NT (6 nmol in 300 μl saline, i.p.) in Kit^W/W-v mice which had been engrafted i.p. with Kit^+/+ BMCMCs treated with either empty vector (empty vector MCs→Kit^W/W-v), NLN-shRNA (NLN-shRNA MCs→Kit^W/W-v) or mMC-CPA-shRNA (mMC-CPA-shRNA MCs→Kit^W/W-v). (f) MCs in the peritoneal cavity (arrows, MCs; scale bars, 100 μm; May Grunwald-modified Giemsa stain) and mesentery (arrows, MCs; scale bars, 100 μm; Czaba stain). […]

PLCs containing PMCs = test: NT degradation by peritoneal lavage cells (PLCs) containing peritoneal mast cells; type: cell-based, mouse; conditions: Kit+/+ PLCs pre-treated 15 min at 37° C. (chym 100 μM, CFp 10 μM, PCI 10 μg/ml, p03 100 nM); NT 10 μM, 30 min
Procedure: FIG. 5. Neurolysin and carboxypeptidase inhibitors prevent NT degradation by peritoneal mast cells. Kit^+/+ PLCs containing 5×10^4 PMCs were pre-treated for 15 min at 37° C. with one of the following protease inhibitors: chymostatin (chym, chymase inhibitor at 100 μM), CFp-Ala-Ala-Phe-pAB (CFp, […] at 10 μM only for PLCs), potato carboxypeptidase inhibitor (PCI, carboxypeptidase inhibitor at 10 μg/ml) and phosphodiepryl 03 (p03, neurolysin inhibitor at 100 nM for PLCs. Cells were then incubated with NT (10 μM) for 30 min at 37° C. Results are the percentage of NT remaining after incubation with cells compared to the starting concentration of NT (n=4-9 per group).
FIG. 12. (a), PLCs containing 1×10^4 PMCs obtained from either wild type C57BL/6 mice, Ntsr1-deficient (Ntsr1^−/−) mice or Ntsr2-deficient (Ntsr2^−/−) mice were incubated for 2 h with ^3H-5-hydroxytryptamine (3H-serotonin) at 37° C. and stimulated for 15 min at 37° C. with either ET-1 (4 μM) or NT (10 μM). (b), PLCs containing 1×10^4 PMCs obtained from C57BL/6 mice were incubated for 2 h with ^3H-serotonin and stimulated for 15 min with either ET-1 (4 μM) or NT (10 μM). In a separate set of experiments, cells were pre-incubated with BAPTA-AM (Sigma) ([…], 15 min at […]) before the addition of the stimuli. Results are mean ±SEM of 3 experiments. (c), mMC-CPA activity was measured in supernatants obtained from Kit^+/+ PLCs containing 5×10^4 PMCs that were stimulated for 30 min at 37° C. with either ET-1 (4 μM) or NT (10 μM). (d), PLCs containing 5×10^4 PMCs from C57BL/6J mice were pre-treated for 15 min at 37° C. with BAPTA-AM ([…], a Ca^2+ chelator that can reduce MC degranulation) and then incubated with NT (10 μM) for 30 min at 37° C. Results are expressed as the percentage of NT remaining after incubation with cells compared to that in samples of NT incubated in vehicle alone at 37° C. (data were pooled from triplicate determinations in two independent experiments that gave similar results). (e), Expression of mRNA for NT-receptors in the AtT20 neuroendocrine cell line, the mast cell line C1.MC/C57.1, C57BL/6J BMCMCs, Kit^+/+ BMCMCs and peritoneal mast cells purified from Kit^+/+ mice (PMCs).
NT, ET-1, C-reactive protein, and TNF measurements. Concentrations of NT, C-reactive protein, ET-1 and TNF were measured by ELISA (Bachem Peninsula Labs for NT; Biomedica, Vienna for C-reactive protein and ET-1; BD Biosciences for TNF). […] The detection limits for the ELISA kits were: 24 fmol/ml (NT), 0.048 fmol/ml (ET-1), 0.124 ng/ml (C-reactive protein) and […] (human TNF).

NTR1 = conditions: different tissues and cells from various species; cited from earlier work
PMCs = test: Internalization of rhodamine-labelled peptide by PMCs (flow cytometry, confocal microscopy); type: cell-based, mouse
Procedure: FIG. 11. […] P<0.0001 versus corresponding NT- or ET-1-injected groups. […] (b) Flow cytometry analysis and confocal microscopy of C57BL/6 PMCs incubated with NT-rhodamine (50 μM) (red) at 4° C. (0 min) or placed at 37° C. for 5 or 15 min. PMCs were identified among other PLCs by flow cytometry by staining of IgE bound to the MCs (green). […] (c) PLCs containing 5×10^4 PMCs from either C57BL/6, Ntsr1^−/− or Ntsr2^−/− mice were incubated with NT (10 μM) for 30 min at 37° C. Results are expressed as the percentage of NT remaining after incubation with cells compared to that in samples of NT incubated in vehicle alone at 37° C. (data were pooled from triplicate determinations in two independent experiments that gave similar results). (d,e) Changes in MAP vs. baseline levels (=“0”, measured 3 min after injection of 300 μl saline, i.p.) at various times after injection of NT (6 nmol in 300 μl saline, i.p.) (d), and NT levels in the peritoneal fluids of these mice at 30 min after injection (e), in Kit^W/W-v mice that had been engrafted i.p. with BMCMCs of C57BL/6-Ntsr1^+/+ or -Ntsr1^−/− origin. (f) Survival after CLP (50% ligation; single puncture with 22 G needle) in Kit^W/W-v mice that had been engrafted i.p. with BMCMCs of C57BL/6-Ntsr1^+/+ or -Ntsr1^−/− origin.
FIGS. 19a-19f. (a-c) Flow cytometry analysis and (d, e) confocal microscopy of Ntsr+/+ (a, c) or Ntsr1−/−2−/− (b) PMCs pre-loaded with either NT-rhodamine (a, b) or scrambled peptide-rhodamine (c) ([…]) (red) that were placed at 37° C. for the indicated times. Control cells pre-loaded with either NT-rhodamine or scrambled peptide-rhodamine were maintained at 4° C. (“0 min”). PMCs were identified among other peritoneal lavage cells (PLCs) in confocal microscopy by green staining of IgE bound to the PMC surface and in flow cytometry by staining of c-Kit receptors. (f) Fold increase in mean fluorescence intensity by flow cytometry in PMCs versus other (non mast cell) PLCs obtained from Ntsr+/+ mice incubated for 15 min at 37° C. with NT-rhodamine when compared to control cells that were maintained at 4° C. for 15 min. Data are representative of (a-e) or pooled from (f) the three experiments performed, each of which gave similar results.
Flow cytomety and confocal microscopy. Cells were incubated for 16 h in DMEM+10% FCS+2 μg/ml IgE (hybridoma H1-DNP-ε26). Cells were washed and resuspended in DMEM+10% fetal calf serum (FCS)+NT-rhodamine (AnaSpec) (50 μM) and placed at 4° C. for 1 h. Some cells then were placed at 37° C. for 5 or 15 min. IgE Abs bound to PMCs were stained with FITC-conjugated anti-mouse IgE Abs (BD Biosciences). Levels of surface IgE were analyzed by flow cytometry, as described above.

T1 sequence (Q91YP2 38-704): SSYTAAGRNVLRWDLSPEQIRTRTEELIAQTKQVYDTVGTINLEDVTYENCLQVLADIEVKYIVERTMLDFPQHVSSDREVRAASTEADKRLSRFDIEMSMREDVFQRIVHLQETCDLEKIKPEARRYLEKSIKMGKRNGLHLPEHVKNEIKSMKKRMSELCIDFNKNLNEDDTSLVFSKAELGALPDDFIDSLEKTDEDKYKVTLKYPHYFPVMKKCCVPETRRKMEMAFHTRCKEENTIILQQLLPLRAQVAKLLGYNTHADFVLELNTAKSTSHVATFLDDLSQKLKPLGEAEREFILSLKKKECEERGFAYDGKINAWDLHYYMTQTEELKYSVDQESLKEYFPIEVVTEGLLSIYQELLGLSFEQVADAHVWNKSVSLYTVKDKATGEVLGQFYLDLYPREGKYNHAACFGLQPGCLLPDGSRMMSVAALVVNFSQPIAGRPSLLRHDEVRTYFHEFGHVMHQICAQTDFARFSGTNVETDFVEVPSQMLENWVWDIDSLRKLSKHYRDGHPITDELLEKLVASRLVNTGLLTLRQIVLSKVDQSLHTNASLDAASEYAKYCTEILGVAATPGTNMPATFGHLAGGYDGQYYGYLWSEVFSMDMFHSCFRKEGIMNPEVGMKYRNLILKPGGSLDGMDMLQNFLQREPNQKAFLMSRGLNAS

## CC[C@H](C)[C@H](NC(=O)[C@@H]1CCCN1)C(=O)O [Pro-Ile] (H-Pro-Ile-OH)
Neurolysin (NLN)
  NT degradation by membrane or cytosol preparations of BMCMCs: almost completely inhibited

## CC(NC(=O)C(C)NC(CCc1ccccc1)C(=O)O)C(=O)NC(Cc1ccccc1)C(=O)Nc1ccc(C(=O)O)cc1 (stereo not drawn) [CFp-Ala-Ala-Phe-pAB]
PLCs containing PMCs
  NT degradation by PLCs in presence of protease inhibitor: did not prevent NT degradation

## COc1cccc(OC)c1-c1cc(C(=O)NC2(C(=O)O)C3CC4CC(C3)CC2C4)nn1-c1ccnc2cc(Cl)ccc12 (stereo not drawn) [SR48692]
NTR1
  affinity for NTR1: nanomolar affinity

## NT-rhodamine: rhodamine-labelled NT
PMCs; C57BL/6 PMCs, 50 μM, 37° C. for 5 or 15 min
  binding and internalization by PMCs: bound and internalized
PMCs; Ntsr1−/−2−/− PMCs, 10 µM, 37° C.
  internalization by PMCs lacking Ntsr1 and Ntsr2: peptide internalization did not occur
PMCs; Ntsr+/+ PLCs, 15 min at 37° C.
  uptake by PMCs compared with non mast cells of the peritoneal cavity: more efficient
PMCs; Ntsr+/+ PMCs, 10 µM, 37° C.
  internalization by PMCs: able to internalize

## CC(C)C[C@H](NC(=O)[C@@H](NC(=O)N[C@@H](Cc1ccccc1)C(=O)O)[C@@H]1CCN=C(N)N1)C(=O)N[C@H](C=O)Cc1ccccc1 [chymostatin]
PLCs containing PMCs
  NT degradation by PLCs in presence of protease inhibitor: did not prevent NT degradation

## PCI: potato carboxypeptidase inhibitor; mouse MC carboxypeptidase A (mMC-CPA) inhibitor (QQHADPICNKPCKTHDDCSGAWFCQACWNSARTCGPYVG; UniProt P01075 1-39, looked up)
PLCs containing PMCs
  NT degradation by PLCs in presence of protease inhibitor: significantly inhibited
